The values below are quoted from earlier work in US20230065964A1, “COMPOSITION FOR ENHANCING UROLITHIN PRODUCTION IN A HUMAN SUBJECT” (Migalis ApS, priority 2020, published 2023).

One data set relates to Chaenorhabditis elegans. Conditions: for Pharyngeal pumping rate and mobility: during aging.
The test system of data set [1] is skeletal muscle of humans. Conditions: 28 days oral administration, 500 mg/d and 1000 mg/d.

`O=c1oc2cc(O)ccc2c2cc(O)c(O)cc12` [urolithin C]: in the data set on Chaenorhabditis elegans, the “Pharyngeal pumping rate and mobility” value was “mild to no benefit”.

For the compound `O=c1oc2c(O)c(O)ccc2c2cc(O)c(O)cc12` [urolithin D], in the data set with Chaenorhabditis elegans, the “Pharyngeal pumping rate and mobility” value is “mild to no benefit”.

As to `O=c1oc2cc(O)ccc2c2ccc(O)cc12` [Urolithin A, urolithin A], the “Pharyngeal pumping rate and mobility” value in the data set on Chaenorhabditis elegans is on record as “improved”. Further, the mitochondrial biogenesis result with Chaenorhabditis elegans (older worms) is recorded as “activated”. Also, the mitophagy entry in the data set on Chaenorhabditis elegans (throughout the duration of the treatment) is given as “activated mitophagy”. Further, the “mitochondrial biogenesis in the skeletal muscle” value in data set [1] is given as “stimulated”. For the same compound, in the data set on old mice, the Lean muscle mass result is “did not increase”, the “greater level of spontaneous exercise (muscle function)” value was 57% and the “greater running endurance (endurance capacity)” value is 42%. In addition, in the data set on old mice (molecular level), the “expression of autophagy and mitophagy transcripts” value was “general tendency for a higher expression”.
